Laboratory results published in ChEMBL document CHEMBL1136204, “Thymidine and thymidine-5'-O-monophosphate analogues as inhibitors of Mycobacterium tuberculosis thymidylate kinase” (Bioorg Med Chem Lett, 2003).

How the values were obtained:
[1] = molecular target: T1, Thymidylate kinase (Mycobacterium tuberculosis) (UniProt P9WKE1); assay: (§1) Kinetic parameter Vm of thymidine monophosphate kinase (TMPKmt) in Mycobacterium tuberculosis was determined; type: functional
T1 sequence (whole entry): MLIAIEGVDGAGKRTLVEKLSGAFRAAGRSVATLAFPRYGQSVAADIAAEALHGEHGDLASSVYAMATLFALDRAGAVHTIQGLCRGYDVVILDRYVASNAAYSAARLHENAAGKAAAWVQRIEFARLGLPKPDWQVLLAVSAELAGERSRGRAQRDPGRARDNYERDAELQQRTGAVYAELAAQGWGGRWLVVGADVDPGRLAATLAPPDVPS

[2] = molecular target: T1, Thymidylate kinase (Mycobacterium tuberculosis); assay: as §1

| Compound | Vm [1] | Vm [2] |
| --- | --- | --- |
| O=c1ccn([C@H]2C[C@H](O)[C@@H](COP(=O)(O)O)O2)c(=O)[nH]1 | 3.5 µM/min/mg |  |
| O=c1[nH]c(=O)n([C@H]2C[C@H](O)[C@@H](COP(=O)(O)O)O2)cc1Br | 9.8 µM/min/mg |  |
| Cc1cn([C@H]2C[C@H](O)[C@@H](COP(=O)(O)O)O2)c(=O)[nH]c1=O |  | 10.6 µM/min/mg |
| O=c1[nH]c(=O)n([C@H]2C[C@H](O)[C@@H](COP(=O)(O)O)O2)cc1I | 7.5 µM/min/mg |  |
| O=c1[nH]c(=O)n([C@H]2C[C@H](O)[C@@H](COP(=O)(O)O)O2)cc1F | 4.7 µM/min/mg |  |
